Source: patent US10934310B2, “Inhibitors of Bruton's tyrosine kinase and method of their use” (JANSSEN PHARMACEUTICA NV, priority 2015, dated 2021)

Target: unphosphorylated-BTK kinase domain (UP-BTK), GST-tagged human BTK (389-659aa) (Homo sapiens (Human), UniProt Q06187)
Test: BTK Kinase Lanthascreen Binding Assay
Conditions: for IC50: read-out: BTK_I_binding pIC50 (converted); for BTK_I_binding pIC50: Lanthascreen binding, 60 minutes incubation, pIC50 = negative log of the IC50 in molar
Protocol: BTK Kinase Lanthascreen Binding Assay:
A BTK kinase lanthascreen binding assay monitors compound binding to unphosphorylated-BTK kinase domain (UP-BTK), by competing with a fluorescent labeled tracer. […] Data were analyzed using Xlfit™ version 5.3 from ID Business Solutions (Guildford), Microsoft Excel add-in. pIC50 refers to the negative log of the IC50 in molar.

unphosphorylated-BTK kinase domain (UP-BTK), GST-tagged human BTK (389-659aa), sequence (Q06187 389-659): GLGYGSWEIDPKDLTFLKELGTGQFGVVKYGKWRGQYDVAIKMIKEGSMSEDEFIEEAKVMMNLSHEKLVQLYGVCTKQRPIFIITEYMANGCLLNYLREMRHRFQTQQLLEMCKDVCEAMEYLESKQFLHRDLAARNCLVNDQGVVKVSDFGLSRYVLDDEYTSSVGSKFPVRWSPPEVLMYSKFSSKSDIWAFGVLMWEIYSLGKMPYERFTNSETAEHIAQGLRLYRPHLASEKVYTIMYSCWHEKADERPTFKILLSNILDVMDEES

SMILES | IC50 | BTK_I_binding pIC50
N[C@H]1CCC[C@H]1NC(=O)c1sc2nccc3c2c1NC(=O)N3c1cc(-c2ccccc2)cnn1 [Example 349, N-((1R,2S)-2-Aminocyclopentyl)-4-oxo-5-(5-phenylpyridazin-3-yl)-4,5-dihydro-3H-1-thia-3,5,8-triazaacenaphthylene-2-carboxamide] | > 1000 nM | –
C=CC(=O)N[C@@H]1CCC[C@H](NC(=O)c2sc3nccc4c3c2NC(=O)N4c2ccnc(-c3ccccc3)c2)C1 [Example 351, N-((1S,3R)-3-Acrylamidocyclohexyl)-4-oxo-5-(2-phenylpyridin-4-yl)-4,5-dihydro-3H-1-thia-3,5,8-triazaacenaphthylene-2-carboxamide] | > 1000 nM | –
C=CC(=O)N[C@H]1CCC[C@H]1NC(=O)c1sc2nccc3c2c1NC(=O)N3c1ccc(Oc2cccnc2C)cc1C [Example 367, N-((1R,2S)-2-acrylamidocyclopentyl)-5-(2-methyl-4-((2-methylpyridin-3-yl)oxy)phenyl)-4-oxo-4,5-dihydro-3H-1-thia-3,5,8-triazaacenaphthylene-2-carboxamide] | – | 7.54
C=CC(=O)N[C@H]1CCC[C@H]1NC(=O)c1sc2nccc3c2c1NC(=O)N3c1ccc(Oc2cccc(C)n2)cc1C [Example 368, N-((1R,2S)-2-acrylamidocyclopentyl)-5-(2-methyl-4-((6-methylpyridin-2-yl)oxy)phenyl)-4-oxo-4,5-dihydro-3H-1-thia-3,5,8-triazaacenaphthylene-2-carboxamide] | – | 8.13
C=CC(=O)N[C@H]1CCC[C@H]1NC(=O)c1sc2nccc3c2c1NC(=O)N3c1ccc(Oc2cccc(C)n2)cc1 [Example 369, N-((1R,2S)-2-Acrylamidocyclopentyl)-5-(4-((6-methylpyridin-2-yl)oxy)phenyl)-4-oxo-4,5-dihydro-3H-1-thia-3,5,8-triazaacenaphthylene-2-carboxamide] | – | 8.06
C=CC(=O)N[C@H]1CCC[C@H]1NC(=O)c1sc2nccc3c2c1NC(=O)N3c1ccc(Oc2ccc(C)nc2)cc1 [Example 370, N-((1R,2S)-2-Acrylamidocyclopentyl)-5-(4-((6-methylpyridin-3-yl)oxy)phenyl)-4-oxo-4,5-dihydro-3H-1-thia-3,5,8-triazaacenaphthylene-2-carboxamide] | – | 7.79
C=CC(=O)N[C@H]1CCC[C@H]1NC(=O)c1sc2nccc3c2c1NC(=O)N3c1ccc(Oc2cccnc2C)cc1 [Example 372, N-((1R,2S)-2-Acrylamidocyclopentyl)-5-(4-((2-methylpyridin-3-yl)oxy)phenyl)-4-oxo-4,5-dihydro-3H-1-thia-3,5,8-triazaacenaphthylene-2-carboxamide] | – | 7.93
C=CC(=O)N[C@H]1CCC[C@H]1NC(=O)c1sc2nccc3c2c1NC(=O)N3c1ccnc(C2CCC2)c1 [Example 376, N-((1R,2S)-2-Acrylamidocyclopentyl)-5-(2-cyclobutylpyridin-4-yl)-4-oxo-4,5-dihydro-3H-1-thia-3,5,8-triazaacenaphthylene-2-carboxamide] | – | 7.81
C=CC(=O)N[C@@H]1CCC[C@H]1NC(=O)c1sc2nccc3c2c1NC(=O)N3c1ccnc(C2CCC2)c1 [Example 379, N-((1R,2R)-2-Acrylamidocyclopentyl)-5-(2-cyclobutylpyridin-4-yl)-4-oxo-4,5-dihydro-3H-1-thia-3,5,8-triazaacenaphthylene-2-carboxamide] | – | 6.80
C=CC(=O)N[C@H]1CCC[C@H]1NC(=O)c1sc2nccc3c2c1NC(=O)N3c1ccc(O[C@H]2CCOC2)cc1C [Example 383, N-((1R,2S)-2-Acrylamidocyclopentyl)-5-(2-methyl-4-(((S)-tetrahydrofuran-3-yl)oxy)phenyl)-4-oxo-4,5-dihydro-3H-1-thia-3,5,8-triazaacenaphthylene-2-carboxamide] | – | 7.45
C=CC(=O)N[C@H]1CCC[C@H]1NC(=O)c1sc2nccc3c2c1NC(=O)N3c1ccc(Oc2ccc(C)nc2)cc1C [Example 384, N-((1R,2S)-2-Acrylamidocyclopentyl)-5-(2-methyl-4-((6-methylpyridin-3-yl)oxy)phenyl)-4-oxo-4,5-dihydro-3H-1-thia-3,5,8-triazaacenaphthylene-2-carboxamide] | – | 7.54
C=CC(=O)N[C@H]1CCC[C@H]1NC(=O)c1sc2nccc3c2c1NC(=O)N3c1ccc(O[C@@H]2CCOC2)cc1C [Example 386, N-((1R,2S)-2-Acrylamidocyclopentyl)-5-(2-methyl-4-(((R)-tetrahydrofuran-3-yl)oxy)phenyl)-4-oxo-4,5-dihydro-3H-1-thia-3,5,8-triazaacenaphthylene-2-carboxamide] | – | 7.09
C=CC(=O)N[C@H]1CCC[C@H]1NC(=O)c1sc2nccc3c2c1NC(=O)N3c1ccc(Oc2cccnn2)cc1 [Example 387, N-((1R,2S)-2-Acrylamidocyclopentyl)-4-oxo-5-(4-(pyridazin-3-yloxy)phenyl)-4,5-dihydro-3H-1-thia-3,5,8-triazaacenaphthylene-2-carboxamide] | – | 7.16
O=C(N[C@@H]1CCC[C@H]1O)c1sc2nccc3c2c1NC(=O)N3c1ccc(Oc2ccccc2)cc1 [Example 393, N-((1R,2R)-2-Hydroxycyclopentyl)-4-oxo-5-(4-phenoxyphenyl)-4,5-dihydro-3H-1-thia-3,5,8-triazaacenaphthylene-2-carboxamide] | – | 6.74
CC(=O)N[C@H]1CCC[C@H]1NC(=O)c1sc2nccc3c2c1NC(=O)N3c1ccc(Oc2ccccc2)cc1 [Example 396, N-((1R,2S)-2-Acetamidocyclopentyl)-4-oxo-5-(4-phenoxyphenyl)-4,5-dihydro-3H-1-thia-3,5,8-triazaacenaphthylene-2-carboxamide] | – | 6.66
CCC(=O)N[C@H]1CCC[C@H]1NC(=O)c1sc2nccc3c2c1NC(=O)N3c1ccc(Oc2ccccc2)cc1 [Example 398, 4-Oxo-5-(4-phenoxyphenyl)-N-((1R,2S)-2-propionamidocyclopentyl)-4,5-dihydro-3H-1-thia-3,5,8-triazaacenaphthylene-2-carboxamide] | – | 6.56
C=CC(=O)N[C@H]1CCCC[C@H]1NC(=O)c1sc2nccc3c2c1NC(=O)N3c1ccc(Oc2ccccn2)cc1C [Example 401, N-((1R,2S)-2-Acrylamidocyclohexyl)-5-(2-methyl-4-(pyridin-2-yloxy)phenyl)-4-oxo-4,5-dihydro-3H-1-thia-3,5,8-triazaacenaphthylene-2-carboxamide] | – | 6.39
C=CC(=O)N[C@H]1CCCC[C@H]1NC(=O)c1sc2nccc3c2c1NC(=O)N3c1ccc(Oc2cccnn2)cc1C [Example 406, N-((1R,2S)-2-Acrylamidocyclohexyl)-5-(2-methyl-4-(pyridazin-3-yloxy)phenyl)-4-oxo-4,5-dihydro-3H-1-thia-3,5,8-triazaacenaphthylene-2-carboxamide] | – | 6.13
C=CC(=O)N[C@H]1CCCC[C@H]1NC(=O)c1sc2nccc3c2c1NC(=O)N3c1ccc(Oc2cccnn2)cc1 [Example 408, N-((1R,2S)-2-Acrylamidocyclohexyl)-4-oxo-5-(4-(pyridazin-3-yloxy)phenyl)-4,5-dihydro-3H-1-thia-3,5,8-triazaacenaphthylene-2-carboxamide] | > 1000 nM | –
CN[C@H]1CCN(C(=O)c2sc3nccc4c3c2NC(=O)N4c2ccc(Oc3ccccc3)cc2C)C1 [Example 417, (S)-5-(2-Methyl-4-phenoxyphenyl)-2-(3-(methylamino)pyrrolidine-1-carbonyl)-3H-1-thia-3,5,8-triazaacenaphthylen-4(5H)-one] | – | 5.89
CCC(=O)N[C@H]1CCN(C(=O)c2sc3nccc4c3c2NC(=O)N4c2ccc(Oc3ccccc3)cc2C)C1 [Example 418, (S)—N-(1-(5-(2-Methyl-4-phenoxyphenyl)-4-oxo-4,5-dihydro-3H-1-thia-3,5,8-triazaacenaphthylene-2-carbonyl)pyrrolidin-3-yl)propionamide] | – | 5.80
CC(=O)N[C@H]1CCN(C(=O)c2sc3nccc4c3c2NC(=O)N4c2ccc(Oc3ccccc3)cc2C)C1 [Example 419, (S)—N-(1-(5-(2-Methyl-4-phenoxyphenyl)-4-oxo-4,5-dihydro-3H-1-thia-3,5,8-triazaacenaphthylene-2-carbonyl)pyrrolidin-3-yl)acetamide] | – | 5.79
Cc1cc(Oc2ccccc2)ccc1N1C(=O)Nc2c(C(=O)N3CC[C@H](N)C3)sc3nccc1c23 [Example 420, (S)-2-(3-Aminopyrrolidine-1-carbonyl)-5-(2-methyl-4-phenoxyphenyl)-3H-1-thia-3,5,8-triazaacenaphthylen-4(5H)-one] | – | 5.73
Cc1cc(Oc2ccccc2)ccc1N1C(=O)Nc2c(C(=O)N3CC[C@H](N(C)C)C3)sc3nccc1c23 [Example 421, (S)-2-(3-(Dimethylamino)pyrrolidine-1-carbonyl)-5-(2-methyl-4-phenoxyphenyl)-3H-1-thia-3,5,8-triazaacenaphthylen-4(5H)-one] | – | 5.66
CC(=O)N[C@H]1CC[C@H](NC(=O)c2sc3nccc4c3c2NC(=O)N4c2cnc(Oc3ccccc3)cc2C)CC1 [Example 432, N-((1r,4r)-4-Acetamidocyclohexyl)-5-(*S)-(4-methyl-6-phenoxypyridin-3-yl)-4-oxo-4,5-dihydro-3H-1-thia-3,5,8-triazaacenaphthylene-2-carboxamide] | – | 7.45
C=CC(=O)N[C@H]1CCN(C(=O)c2sc3nccc4c3c2NC(=O)N4c2ccc(Oc3ccccc3)cc2C)C1 [Example 433, (S)—N-(1-(5-(2-Methyl-4-phenoxyphenyl)-4-oxo-4,5-dihydro-3H-1-thia-3,5,8-triazaacenaphthylene-2-carbonyl)pyrrolidin-3-yl)acrylamide] | – | 7.01
